Consider 5 cell lines from the supplement of paper PMC10307832.

Common to all, as to test: relative viability (nuclei count vs DMSO), 5 days (fraction); higher = more cells survive
Compound in the experiment “SGI-1776 + Phenformin”: CN1CCC(CNc2ccc3ncc(-c4cccc(OC(F)(F)F)c4)n3n2)CC1 [SGI-1776] + N=C(N)NC(=N)NCCc1ccccc1 [Phenformin] (partner 250 µM)
The procedure, abridged: (§1)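 Relative viability was taken as the ratio of nuclei in treated wells to nuclei in vehicle wells. Lung cancer cell lines in 1536-well plates received compounds by pin tool one day after seeding, either one drug alone or a fixed anchor-drug dose plus five library-drug doses (not always all listed) in √10 steps. Nuclei were counted on 4× images after 5 days of treatment, and values are medians of duplicate plates.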

Compound in experiment [1]: C1COCCN1C2=NC(=NC3=C2OC4=C3C=CC=N4)C5=CC(=CC=C5)NC(=O)C6=CN=C(C=C6)N + CCNC(=O)c1noc(-c2cc(C(C)C)c(O)cc2O)c1-c1ccc(CN2CCOCC2)cc1 [Luminespib] (partner 0.01 µM)
The essentials: as §1

Compound in the experiment “SGI-1776 + AZD7762”: CN1CCC(CNc2ccc3ncc(-c4cccc(OC(F)(F)F)c4)n3n2)CC1 [SGI-1776] + NC(=O)Nc1cc(-c2cccc(F)c2)sc1C(=O)N[C@H]1CCCNC1 [AZD7762] (partner 0.2 µM)
The essentials: as §1

Compound in the experiment “SGI-1776 + Tozasertib”: CN1CCC(CNc2ccc3ncc(-c4cccc(OC(F)(F)F)c4)n3n2)CC1 [SGI-1776] + Cc1cc(Nc2cc(N3CCN(C)CC3)nc(Sc3ccc(NC(=O)C4CC4)cc3)n2)n[nH]1 [Tozasertib] (partner 0.1 µM)
The procedure, abridged:
as §1

Consider NCI-H3122, for which the relative viability amounted to 0.371 with SGI-1776 + Phenformin (first compound 0.08 µM); 0.328 in the experiment with SGI-1776 + Phenformin (first compound 0.8 µM); 0.309 with SGI-1776 + Phenformin (first compound 2.53 µM); 0.278 with SGI-1776 + Phenformin (first compound 8 µM); 0.0667 in experiment [1] (first compound 0.02 µM); 0.0713 in experiment [1] (first compound 0.06325 µM). Also, the relative viability in experiment [1] (first compound 0.2 µM) turned out to be 0.0835; in experiment [1] (first compound 0.6325 µM), 0.0904; in experiment [1] (first compound 2 µM), 0.077; in the experiment with SGI-1776 + AZD7762 (first compound 0.08 µM), 0.941; with SGI-1776 + AZD7762 (first compound 0.8 µM) it was 0.935; with SGI-1776 + AZD7762 (first compound 2.53 µM), 0.938. Moreover, the relative viability was 1 in the experiment with SGI-1776 + AZD7762 (first compound 8 µM); 0.443 in the experiment with SGI-1776 + Tozasertib (first compound 0.08 µM); 0.343 with SGI-1776 + Tozasertib (first compound 0.8 µM); 0.334 in the experiment with SGI-1776 + Tozasertib (first compound 2.53 µM); 0.2 in the experiment with SGI-1776 + Tozasertib (first compound 8 µM).
On to PC-3 [JPC-3], for which the relative viability with SGI-1776 + Phenformin (first compound 0.08 µM) is 0.509; with SGI-1776 + Phenformin (first compound 0.8 µM), 0.476; in the experiment with SGI-1776 + Phenformin (first compound 2.53 µM), 0.511; in the experiment with SGI-1776 + Phenformin (first compound 8 µM), 0.451; in experiment [1] (first compound 0.02 µM) it was 0.704; in experiment [1] (first compound 0.06325 µM) it was 0.675. Also, the relative viability was found to be 0.754 in experiment [1] (first compound 0.2 µM); 0.675 in experiment [1] (first compound 0.6325 µM); 0.613 in experiment [1] (first compound 2 µM); 0.921 with SGI-1776 + AZD7762 (first compound 0.08 µM); 0.872 in the experiment with SGI-1776 + AZD7762 (first compound 0.8 µM); 0.685 with SGI-1776 + AZD7762 (first compound 2.53 µM). Moreover, the relative viability with SGI-1776 + AZD7762 (first compound 8 µM) came out at 0.609; with SGI-1776 + Tozasertib (first compound 0.08 µM), 0.911; with SGI-1776 + Tozasertib (first compound 0.8 µM), 0.9; in the experiment with SGI-1776 + Tozasertib (first compound 2.53 µM) it was 0.863; in the experiment with SGI-1776 + Tozasertib (first compound 8 µM), 0.544.
Consider PC-14, for which the relative viability in the experiment with SGI-1776 + Phenformin (first compound 0.08 µM) was 0.573; with SGI-1776 + Phenformin (first compound 0.8 µM) it was 0.648; with SGI-1776 + Phenformin (first compound 2.53 µM), 0.579; with SGI-1776 + Phenformin (first compound 8 µM) it was 0.151; in experiment [1] (first compound 0.02 µM), 0.184; in experiment [1] (first compound 0.06325 µM), 0.189. For the same cell line, the relative viability in experiment [1] (first compound 0.2 µM) turned out to be 0.13; in experiment [1] (first compound 0.6325 µM), 0.151; in experiment [1] (first compound 2 µM), 0.148; with SGI-1776 + AZD7762 (first compound 0.08 µM), 0.474; with SGI-1776 + AZD7762 (first compound 0.8 µM), 0.352; with SGI-1776 + AZD7762 (first compound 2.53 µM), 0.27. The relative viability with SGI-1776 + AZD7762 (first compound 8 µM) amounted to 0.146; in the experiment with SGI-1776 + Tozasertib (first compound 0.08 µM), 0.618; with SGI-1776 + Tozasertib (first compound 0.8 µM) it was 0.522; with SGI-1776 + Tozasertib (first compound 2.53 µM), 0.452; with SGI-1776 + Tozasertib (first compound 8 µM), 0.0803.
As for RERF-LC-KJ, the relative viability in the experiment with SGI-1776 + Phenformin (first compound 0.08 µM) amounted to 0.464; in the experiment with SGI-1776 + Phenformin (first compound 0.8 µM), 0.415; with SGI-1776 + Phenformin (first compound 2.53 µM), 0.439; in the experiment with SGI-1776 + Phenformin (first compound 8 µM) it was 0.32; in experiment [1] (first compound 0.02 µM), 1.22; in experiment [1] (first compound 0.06325 µM) it was 1.3. In addition, the relative viability in experiment [1] (first compound 0.2 µM) stood at 1.02; in experiment [1] (first compound 0.6325 µM), 1.38; in experiment [1] (first compound 2 µM), 0.633; in the experiment with SGI-1776 + AZD7762 (first compound 0.08 µM), 0.912; with SGI-1776 + AZD7762 (first compound 0.8 µM), 1.08; in the experiment with SGI-1776 + AZD7762 (first compound 2.53 µM), 0.831. Besides, the relative viability is 0.828 with SGI-1776 + AZD7762 (first compound 8 µM); 0.473 in the experiment with SGI-1776 + Tozasertib (first compound 0.08 µM); 0.412 with SGI-1776 + Tozasertib (first compound 0.8 µM); 0.235 in the experiment with SGI-1776 + Tozasertib (first compound 2.53 µM); 0.225 with SGI-1776 + Tozasertib (first compound 8 µM).
Take SW 900: the relative viability with SGI-1776 + Phenformin (first compound 0.08 µM) turned out to be 0.731; in the experiment with SGI-1776 + Phenformin (first compound 0.8 µM) it was 0.563; with SGI-1776 + Phenformin (first compound 2.53 µM) it was 0.538; in the experiment with SGI-1776 + Phenformin (first compound 8 µM) it was 0.348; in experiment [1] (first compound 0.02 µM), 0.203; in experiment [1] (first compound 0.06325 µM), 0.166. In addition, the relative viability in experiment [1] (first compound 0.2 µM) amounted to 0.172; in experiment [1] (first compound 0.6325 µM) it was 0.152; in experiment [1] (first compound 2 µM), 0.174; in the experiment with SGI-1776 + AZD7762 (first compound 0.08 µM) it was 0.852; with SGI-1776 + AZD7762 (first compound 0.8 µM), 0.745; with SGI-1776 + AZD7762 (first compound 2.53 µM), 0.676. The relative viability stood at 0.568 in the experiment with SGI-1776 + AZD7762 (first compound 8 µM); 0.693 with SGI-1776 + Tozasertib (first compound 0.08 µM); 0.608 with SGI-1776 + Tozasertib (first compound 0.8 µM); 0.467 in the experiment with SGI-1776 + Tozasertib (first compound 2.53 µM); 0.222 with SGI-1776 + Tozasertib (first compound 8 µM).
